This note sets out measurements from publication PMC8396344, “Palmitoylation of Prolactin-Releasing Peptide Increased Affinity for and Activation of the GPR10, NPFF-R2 and NPFF-R1 Receptors: In Vitro Study” (International Journal of Molecular Sciences, 2021).

Assay [1] deals with T1, GPR10 (human, UniProt P49683 1-370).
T1 sequence (looked up): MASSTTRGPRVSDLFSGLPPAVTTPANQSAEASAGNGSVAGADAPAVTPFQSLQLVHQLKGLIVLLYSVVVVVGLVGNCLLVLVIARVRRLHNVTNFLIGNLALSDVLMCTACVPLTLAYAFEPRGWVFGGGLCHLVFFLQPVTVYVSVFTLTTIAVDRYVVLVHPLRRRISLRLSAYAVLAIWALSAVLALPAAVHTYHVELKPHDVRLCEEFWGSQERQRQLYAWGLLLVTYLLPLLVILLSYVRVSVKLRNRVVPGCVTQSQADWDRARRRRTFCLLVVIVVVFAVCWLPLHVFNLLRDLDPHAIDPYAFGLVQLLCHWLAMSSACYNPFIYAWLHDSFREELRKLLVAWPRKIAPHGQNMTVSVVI

The target of assay [2] is T2, NPFF-R2 (Homo sapiens, UniProt Q9Y5X5).
T2 construct: host or cells: CHO-K1 (AequoScreen, co-expressing aequorin)
Nature of the assay: Cell signaling by immunoblotting, CHO-K1 cells expressing NPFF-R2. It counts as cell-based. The conditions noted are these: dose-response 10^−11 to 10^−5 M, 5 min, 37 °C, immunoblot, at least two experiments. Here is the method:
Cells were seeded in 24-well plates at 30,000 cells/well in assay medium (growth medium without selective antibiotics) and were grown for 2 days. The day before the experiment, the medium was changed to serum-free medium. […] Cells were lysed with Laemmli sample buffer (62.5 mM Tris-HCl at pH 6.8, 2% SDS, 10% glycerol, 0.01% bromophenol blue, 5% β-mercaptoethanol, 50 mM NaF, and 1 mM Na3VO4). Samples were stored at −20 °C. Electrophoresis and immunoblotting were performed as described previously. For detection of signaling pathways, primary monoclonal antibodies (see Table 5 for the antibodies used) purchased from Cell Signaling Technology (Danvers, MA, USA) were used.
(§1) Experiments using immunoblotting were analyzed using one-way ANOVA followed by Dunnett’s post hoc test; p < 0.05 was considered statistically significant. Dose-response curves were obtained from nonlinear regression.

In the next assay the target is T3, Y1 (Homo sapiens, UniProt P25929).
T3 construct: host or cells: U2OS
T3 sequence (P25929 1-384): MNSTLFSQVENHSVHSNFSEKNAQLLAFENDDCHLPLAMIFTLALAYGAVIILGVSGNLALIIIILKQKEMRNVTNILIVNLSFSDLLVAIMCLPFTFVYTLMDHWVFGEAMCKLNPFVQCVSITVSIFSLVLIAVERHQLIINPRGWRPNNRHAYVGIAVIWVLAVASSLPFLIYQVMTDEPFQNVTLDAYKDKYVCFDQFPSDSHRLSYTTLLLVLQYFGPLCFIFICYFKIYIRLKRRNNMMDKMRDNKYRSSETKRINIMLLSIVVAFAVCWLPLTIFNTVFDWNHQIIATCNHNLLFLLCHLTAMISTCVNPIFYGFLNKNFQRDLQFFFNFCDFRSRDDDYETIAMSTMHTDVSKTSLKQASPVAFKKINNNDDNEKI
Nature of the assay: Competitive and saturation binding, [^125I]-PYY, U2OS cells with Y1. The procedure:
(§2) Competition binding experiments were performed according to [45]. […] Binding experiments using U2OS cells were optimized and performed in assay buffer (50 mM Tris-Cl pH 7.4, 118 mM NaCl, 5 mM MgCl2, 4.7 mM KCl, 0.1% BSA) for cells stably expressing GHSR and (25 mM HEPES, 120 mM NaCl, 5 mM MgCl2, 4.7 mM KCl, 1 mM CaCl2, 0.5% BSA, 2 g/L glucose) for cells containing receptors Y1, Y2 and Y5. […] Cells were incubated for 60 min at room temperature (RT).
(§3) Experiments were carried out in duplicate at least three times, and Ki was calculated using the Cheng-Prusoff equation.
(§4) Data were analyzed by GraphPad Software (San Diego, CA, USA) and are presented as the means ± SEM. The saturation and competitive binding experiments were analyzed according to [46] using the Cheng-Prusoff equation [33]. The competitive binding curves were plotted compared to the best fit for single-binding site models, and half maximal inhibitory concentration (IC50) values were obtained from nonlinear regression analysis. From saturation binding experiments, the dissociation constant (Kd) and number of binding sites/cell (Bmax) were calculated. Inhibition constants (Ki) were calculated from IC50 values, Kd and the concentration of radioligands.

The next assay addresses T4, Y2 (Homo sapiens, UniProt P49146).
T4 construct: host or cells: U2OS
T4 sequence (P49146 1-381): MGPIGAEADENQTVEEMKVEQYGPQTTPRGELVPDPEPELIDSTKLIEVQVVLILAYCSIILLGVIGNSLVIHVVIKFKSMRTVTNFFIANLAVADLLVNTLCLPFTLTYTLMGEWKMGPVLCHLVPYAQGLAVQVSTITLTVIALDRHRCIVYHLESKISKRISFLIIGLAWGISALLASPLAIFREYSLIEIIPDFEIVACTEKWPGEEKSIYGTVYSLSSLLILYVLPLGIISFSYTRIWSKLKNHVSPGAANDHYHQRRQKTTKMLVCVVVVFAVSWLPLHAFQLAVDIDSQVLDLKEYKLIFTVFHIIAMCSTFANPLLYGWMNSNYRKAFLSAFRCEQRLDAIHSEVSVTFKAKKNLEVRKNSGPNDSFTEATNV
The experiment in a line: Competitive and saturation binding, [^125I]-PYY, U2OS cells with Y2. The procedure:
as §2, §3, §4

Assay [3] addresses T2, NPFF-R2. Nature of the assay: Intracellular Ca^2+ mobilization, AequoScreen CHO-K1 cells with NPFF-R2. The conditions noted are these: CHO-K1 NPFF-R2 aequorin cells; peptides 10^−12 to 10^−5 M; mean ± SEM, three times in duplicates; read-out: EC50 intracellular Ca^2+ release, NPFF-R2. The format is cell-based. The procedure:
The intracellular Ca^2+ level was measured using the AequoScreen stable CHO-K1 cell line containing NPFF-R2 purchased from Perkin Elmer according to the manufacturer’s protocol. Cells at 80–90% confluence cultured in media without selective antibiotics were detached (PBS pH 7.4 + 0.5 mM EDTA) and centrifuged. Cells resuspended in phenol red-free DMEM with 0.1% protease-free BSA and 5 µM coelenterazine h (Thermo Fisher Scientific Inc. Brand) were seeded at 50,000 cells/well in 96-well plates and incubated in the dark at RT with gentle agitation for 4 h. Peptides were tested at concentrations from 10^−12 to 10^−5 M. Luminescent light emission was recorded using a FlexStation 3 plate reader.
Ca^2+ release assay data are shown as the percentage of maximal response, and the results were analyzed by nonlinear regression as log agonist versus response using GraphPad software. Data are representative of at least three experiments, each performed in duplicate.

The target in assay [4] is T5, GPR10 (Homo sapiens, UniProt P49683).
T5 construct: host or cells: CHO-K1
T5 sequence (P49683 1-370): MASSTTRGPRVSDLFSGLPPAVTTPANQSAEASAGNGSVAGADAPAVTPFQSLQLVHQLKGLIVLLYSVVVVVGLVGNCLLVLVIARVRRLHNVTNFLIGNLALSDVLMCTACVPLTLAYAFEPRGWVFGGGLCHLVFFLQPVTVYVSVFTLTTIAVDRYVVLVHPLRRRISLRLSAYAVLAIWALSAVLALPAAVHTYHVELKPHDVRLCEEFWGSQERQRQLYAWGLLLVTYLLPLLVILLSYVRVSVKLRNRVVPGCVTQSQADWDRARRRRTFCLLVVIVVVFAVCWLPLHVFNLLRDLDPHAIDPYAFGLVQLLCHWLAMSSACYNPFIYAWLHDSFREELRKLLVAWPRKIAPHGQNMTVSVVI
Nature of the assay: Cell signaling by immunoblotting, CHO-K1 cells expressing GPR10. The format is cell-based. The conditions noted are these: dose-response 10^−11 to 10^−5 M, 5 min, 37 °C, immunoblot, at least two experiments. Here is the method: Activation of signaling pathways was studied in the CHO-K1 cell lines containing GPR10, NPFF-R2 and NPFF-R1. Cells were seeded in 24-well plates at 30,000 cells/well in assay medium (growth medium without selective antibiotics) and were grown for 2 days. The day before the experiment, the medium was changed to serum-free medium. […] Cells were lysed with Laemmli sample buffer (62.5 mM Tris-HCl at pH 6.8, 2% SDS, 10% glycerol, 0.01% bromophenol blue, 5% β-mercaptoethanol, 50 mM NaF, and 1 mM Na3VO4). Samples were stored at −20 °C. Electrophoresis and immunoblotting were performed as described previously. For detection of signaling pathways, primary monoclonal antibodies (see Table 5 for the antibodies used) purchased from Cell Signaling Technology (Danvers, MA, USA) were used.
as §1
(In general: Immunoblotting shows a protein as a band on a membrane.)

The next assay addresses T6, KOR (Homo sapiens, UniProt P41145).
T6 construct: host or cells: CHO-K1
Nature of the assay: cell-based.

The target in the next assay is T7, DOR (Homo sapiens, UniProt P41143).
T7 construct: host or cells: U2OS
Nature of the assay: Beta-lactamase reporter gene assay (FRET), DOR. The conditions noted are these: β-lactamase assay, agonist mode, U2OS cells; mean ± SEM, 2–3 independent experiments in duplicates. It counts as cell-based. A general note: A reporter such as luciferase makes a cellular process visible.

The next assay concerns the target T8, MOR (Homo sapiens, UniProt P35372).
T8 construct: host or cells: U2OS
Nature of the assay: Beta-lactamase reporter gene assay (FRET), MOR. It counts as cell-based.

In the next assay the target is T9, ORL-1 (Homo sapiens, UniProt P41146).
T9 construct: host or cells: U2OS
The experiment in a line: Beta-lactamase reporter gene assay (FRET), ORL-1. It counts as cell-based. The conditions noted are these: β-lactamase assay, agonist mode, U2OS cells; mean ± SEM, 2–3 independent experiments in duplicates.

Starred links: 1 amine or outer side, 2 acyl side, 3 side chain; linkers in the order of their positions; H or OH if unused. Non-standard residues stand in square brackets, D forms with d. Residues, ends and D or L forms follow the SMILES beside them. Groups on a side chain read outwards from the residue. *: point of attachment. γGlu = O=C(O)[C@H](CCC(=O)[*:2])N[*:1]; Palmitoyl = CCCCCCCCCCCCCCCC(=O)*; NMeF = CN[C@@H](Cc1ccccc1)C(=O)O

T2 sequence (Q9Y5X5 whole entry): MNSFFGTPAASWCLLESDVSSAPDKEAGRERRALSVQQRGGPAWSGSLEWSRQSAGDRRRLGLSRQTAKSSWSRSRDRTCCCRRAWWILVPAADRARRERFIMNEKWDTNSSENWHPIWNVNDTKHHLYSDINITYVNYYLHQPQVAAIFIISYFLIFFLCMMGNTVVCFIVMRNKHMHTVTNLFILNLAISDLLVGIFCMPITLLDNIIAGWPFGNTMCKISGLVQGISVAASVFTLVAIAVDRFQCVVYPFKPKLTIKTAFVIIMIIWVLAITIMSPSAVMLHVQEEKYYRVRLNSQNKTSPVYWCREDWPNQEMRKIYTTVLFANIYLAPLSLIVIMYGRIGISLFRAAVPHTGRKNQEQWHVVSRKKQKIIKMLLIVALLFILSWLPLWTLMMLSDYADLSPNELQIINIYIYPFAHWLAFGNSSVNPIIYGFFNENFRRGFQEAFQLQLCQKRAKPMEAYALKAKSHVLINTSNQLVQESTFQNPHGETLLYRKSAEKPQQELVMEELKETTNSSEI
T7 sequence (P41143 whole entry): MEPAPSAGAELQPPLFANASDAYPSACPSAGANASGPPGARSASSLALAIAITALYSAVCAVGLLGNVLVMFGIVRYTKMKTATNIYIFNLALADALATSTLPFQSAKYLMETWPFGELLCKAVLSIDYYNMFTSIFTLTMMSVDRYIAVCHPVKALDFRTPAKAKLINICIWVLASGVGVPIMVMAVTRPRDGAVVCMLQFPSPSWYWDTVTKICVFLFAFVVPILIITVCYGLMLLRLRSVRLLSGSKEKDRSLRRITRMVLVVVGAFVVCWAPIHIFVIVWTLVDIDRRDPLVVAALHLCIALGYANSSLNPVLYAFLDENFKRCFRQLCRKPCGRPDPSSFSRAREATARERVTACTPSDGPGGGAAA
T9 sequence (P41146 whole entry): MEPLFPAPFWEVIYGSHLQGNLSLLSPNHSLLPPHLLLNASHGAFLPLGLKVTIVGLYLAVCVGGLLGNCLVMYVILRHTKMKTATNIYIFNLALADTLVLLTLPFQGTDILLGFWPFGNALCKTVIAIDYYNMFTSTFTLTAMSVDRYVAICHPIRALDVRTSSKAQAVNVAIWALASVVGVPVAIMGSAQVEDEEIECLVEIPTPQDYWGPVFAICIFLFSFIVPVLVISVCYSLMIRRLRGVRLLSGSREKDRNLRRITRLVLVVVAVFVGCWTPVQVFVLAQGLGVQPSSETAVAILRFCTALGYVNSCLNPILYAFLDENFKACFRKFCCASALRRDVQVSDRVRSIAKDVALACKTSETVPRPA
T8 sequence (P35372 whole entry): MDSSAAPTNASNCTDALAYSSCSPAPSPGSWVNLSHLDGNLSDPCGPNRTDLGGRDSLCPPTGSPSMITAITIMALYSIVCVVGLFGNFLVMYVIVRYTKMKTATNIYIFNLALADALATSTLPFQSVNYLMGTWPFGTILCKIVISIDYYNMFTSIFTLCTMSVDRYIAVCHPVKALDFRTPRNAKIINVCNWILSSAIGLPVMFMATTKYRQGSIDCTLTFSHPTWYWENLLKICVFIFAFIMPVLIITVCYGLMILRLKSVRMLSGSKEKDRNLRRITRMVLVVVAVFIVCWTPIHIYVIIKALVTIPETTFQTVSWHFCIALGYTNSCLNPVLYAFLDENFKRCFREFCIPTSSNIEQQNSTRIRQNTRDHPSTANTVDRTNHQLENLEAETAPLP
T6 sequence (P41145 whole entry): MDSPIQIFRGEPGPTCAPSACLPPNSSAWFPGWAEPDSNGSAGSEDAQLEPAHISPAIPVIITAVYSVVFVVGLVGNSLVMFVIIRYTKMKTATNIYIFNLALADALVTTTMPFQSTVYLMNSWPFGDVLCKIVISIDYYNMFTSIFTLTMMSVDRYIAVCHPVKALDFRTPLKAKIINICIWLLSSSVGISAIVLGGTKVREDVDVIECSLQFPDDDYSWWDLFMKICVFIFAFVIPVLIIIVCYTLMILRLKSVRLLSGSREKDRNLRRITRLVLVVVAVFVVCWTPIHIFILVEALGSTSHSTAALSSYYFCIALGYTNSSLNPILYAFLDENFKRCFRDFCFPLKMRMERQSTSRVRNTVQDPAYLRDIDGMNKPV

In the case of human prolactin-releasing peptide 31, in the assay with GPR10 [1], the EC50, agonist mode, β-lactamase reporter assay is 0.00053 µM.
On to `CC(C)C[C@H](NC(=O)[C@H](N)Cc1ccc(O)cc1)C(=O)N(C)[C@@H](Cc1ccccc1)C(=O)N[C@@H](CCC(N)=O)C(=O)N1CCC[C@H]1C(=O)N[C@@H](CCC(N)=O)C(=O)N[C@@H](CCCNC(=N)N)C(=O)N[C@@H](Cc1ccccc1)C(N)=O` [1DMe] (H-[dY]L[NMeF]QPQRF-NH2), for which, on NPFF-R2 [2], the “EC50 of ERK activation” value is “in nanomolar concentrations”.
Usually Ki stands for the equilibrium dissociation constant of an inhibitor or competing ligand from its target. A low value points to a stronger hold on the target. The term EC50 denotes the concentration needed to bring the measured effect to its halfway point. As for `CCCCCCCCCCCCCCCC(=O)N[C@@H](CCC(=O)NCCCC[C@H](NC(=O)[C@@H](NC(=O)[C@H](CCC(=O)O)NC(=O)[C@H](CCSC)NC(=O)[C@H](CO)NC(=O)[C@H](Cc1c[nH]cn1)NC(=O)[C@H](CCCNC(=N)N)NC(=O)[C@H](Cc1c[nH]cn1)NC(=O)[C@@H](NC(=O)[C@H](CCCNC(=N)N)NC(=O)[C@@H](N)CO)[C@@H](C)O)[C@@H](C)CC)C(=O)N[C@H](C(=O)N1CCC[C@H]1C(=O)N[C@@H](CC(=O)O)C(=O)N[C@H](C(=O)N[C@@H](CC(N)=O)C(=O)N1CCC[C@H]1C(=O)N[C@@H](C)C(=O)N[C@@H](Cc1c[nH]c2ccccc12)C(=O)N[C@@H](Cc1ccc(O)cc1)C(=O)N[C@@H](C)C(=O)N[C@@H](CO)C(=O)N[C@@H](CCCNC(=N)N)C(=O)NCC(=O)N[C@H](C(=O)N[C@@H](CCCNC(=N)N)C(=O)N1CCC[C@H]1C(=O)N[C@H](C(=O)NCC(=O)N[C@@H](CCCNC(=N)N)C(=O)N[C@@H](Cc1ccccc1)C(N)=O)C(C)C)[C@@H](C)CC)[C@@H](C)CC)[C@@H](C)O)C(=O)O` [Palm^11-PrRP31] (H-SRTHRHSMEIK([γGlu-Palmitoyl])TPDINPAWYASRGIRPVGRF-NH2), the Ki on Y1 and on Y2 was > 10 µM each time. The 50% effective concentration (EC50) was 0.0187 ± 0.00131 µM at NPFF-R2 [3]; > 10 µM at KOR; > 10 µM on DOR; > 10 µM at MOR; > 10 µM at ORL-1. Further, the “EC50 of ERK activation” value on GPR10 [4] is given as “in the nanomolar range”.
